The target in assay [1] is T1, recombinant human soluble COMT (S-COMT) (Homo sapiens, UniProt P21964).
T1 sequence (P21964 1-221 isoform P21964-2): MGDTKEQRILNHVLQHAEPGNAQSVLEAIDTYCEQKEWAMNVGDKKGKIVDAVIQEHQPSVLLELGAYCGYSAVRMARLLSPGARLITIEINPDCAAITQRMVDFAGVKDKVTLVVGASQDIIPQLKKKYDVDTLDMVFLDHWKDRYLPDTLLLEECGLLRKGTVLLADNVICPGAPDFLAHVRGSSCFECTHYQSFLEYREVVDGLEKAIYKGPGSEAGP
The assay is described as follows: COMT inhibiting activity in vitro, Assay 2 (HPLC with fluorescence detection). It counts as biochemical. Conditions: Assay 2: 0.8 nM S-COMT, esculetin 0.5 μM, Morrison equation. The procedure: (§1) The inhibitory potency was determined by measuring recombinant human soluble COMT (S-COMT) activity at various compound concentrations. COMT activity measurements were performed according to the method published in Kurkela, M. et al. Analytical Biochemistry, 331 (2004) 198 with slight modifications according to Assay 1 or Assay 2 described below.
Recombinant human S-COMT (0.8 nM) was incubated with the COMT inhibitor and 200 μM S-adenosyl-L-methionine in 100 mM Na2HPO4 buffer, pH 7.4, containing 5 mM MgCl2 for 30 min at 37° C. The reaction was started with the addition of esculetin for a final concentration of 0.5 μM and the reaction mixture with total volume of 200 μl was incubated for 30 min at 37° C. The reaction was stopped with 20 μl of 4 M HClO4 and the precipitated protein was removed by Sirocco protein precipitation plate (centrifuged at 4° C. for 10 min at 3000 g). O-Methylated esculetin was detected by Waters HT Alliance HPLC setup with Waters 474 fluorescence detector (Ex […], Em 460 nm, Gain 100). The analytes were separated isocratically using 0.1 M Na2HPO4, 20 mM citric acid, 0.15 mM EDTA, pH 3.2, in 40% methanol as mobile phase and Waters Spherisorb ODS2 (3 μm, 4.6 mm×100 mm) column. O-Methylated esculetin concentrations were calculated based on the standard curve and the Ki values were calculated using the Morrison equation as in Assay 1.

For assay [2], the target named is T1, recombinant human soluble COMT (S-COMT). The assay is described as follows: COMT inhibiting activity in vitro, Assay 1 (fluorescence plate reader). It counts as biochemical. Conditions: Assay 1: 12 nM S-COMT, 60 min preincubation at 37° C., substrate esculetin, Morrison equation. On the procedure:
as §1
Recombinant human S-COMT (12 nM) was preincubated with the COMT inhibitor and 400 μM S-adenosyl-L-methionine in 100 mM Na2HPO4 buffer, pH 7.4, containing 5 mM MgCl2 for 60 min at 37° C. The reaction was started with the addition of the substrate esculetin for a final concentration of […] and the production of O-methylated esculetin was followed with the FlexStation fluorescence plate reader ([…], USA) using excitation at 355 nm and emission at 460 nm. The inhibitor dissociation constant, Ki, of the studied compounds was calculated using the Morrison equation, which takes the tight binding inhibition into account (Copeland, R. A. Evaluation of Enzyme Inhibitors in Drug Discovery. A Guide for Medicinal Chemists and Pharmacologists, John Wiley & Sons, Inc., Hoboken, N.J., 2005, pp. 185-187):
[formula] wherein v0 and vi are the reaction velocities in the absence and presence, respectively, of the inhibitor, E is the active enzyme concentration, and I is the inhibitor concentration. The data were analyzed with GraphPad Prism version 4.00 software (GraphPad Software, San Diego, Calif., USA). Assay 2

Assay [3] is described as follows: Determination of levodopa concentration in rat plasma. It counts as in vivo. As to conditions: entacapone = 1.00, adult male Wistar rats, COMT inhibitor dosed orally with levodopa+carbidopa. The procedure: Levodopa concentration in rat plasma was determined substantially as described in e.g. Kim, T. K. et al. European Journal of Pharmaceutical Sciences, 38 (2009) 525. The studies were performed in adult male Wistar rats. The COMT inhibitor was dosed orally over a range of doses and several sampling time points were chosen between 0 min and 300 min after drug administration (levodopa+carbidopa and COMT inhibitor). Blood samples were collected by cardiac puncture under CO2 anaesthesia into pre-cooled K2EDTA tubes and kept on ice until the separation of plasma by centrifugation. For levodopa analysis, 75 μl of separated plasma was pipetted without delay into pre-cooled polypropylene tubes containing a conserving agent. All the samples were stored at −80° C. nominal until analyzed. Plasma levels of levodopa were determined by LC-MS/MS (or HPLC). Standard pharmacokinetic methods were used to evaluate the concentration—time data by non-compartmental analysis modeling. The analyses were performed using WinNonlin® Professional v. 5.0.1.

What is called Ki is a dissociation constant, usually derived from enzyme kinetics or from competition with a known ligand.

As to `Cc1ccc(S(=O)(=O)c2c(C#N)cc(O)c(O)c2C#N)cc1` [Example 209, 4,5-Dihydroxy-2-tosylisophthalonitrile], the Ki in assay [1] worked out at 0.1 nM.
On to `N#Cc1cc(O)c(O)c(C#N)c1-c1ccc(CCC(=O)O)cc1` [Example 32, 3-(2′,6′-Dicyano-3′,4′-dihydroxybiphenyl-4-yl)propanoic acid], for which, in assay [2], the Ki stood at 2 nM.
`CC(C)(C)/C=C/c1c(C#N)cc(O)c(O)c1C#N` [Example 28, (E)-2-(3,3-Dimethylbut-1-enyl)-4,5-dihydroxyisophthalonitrile]: the Relative levodopa concentration in assay [3] was 2.69.
For the compound `N#Cc1cc(O)c(O)c(C#N)c1Cc1ccc(CCC(=O)O)cc1` [Example 153, 3-(4-(2,6-Dicyano-3,4-dihydroxybenzyl)phenyl)propanoic acid], in assay [1], the Ki was determined as 0.4 nM.
Regarding `CCc1ccc(Sc2c(C#N)cc(O)c(O)c2C#N)cc1` [Example 158, 2-(4-Ethylphenylthio)-4,5-dihydroxyisophthalonitrile], the Ki in assay [1] was determined as 0.53 nM.
For `N#Cc1cc(O)c(O)c(C#N)c1Sc1ccc(CC(=O)O)cc1` [Example 164, 2-(4-(2,6-Dicyano-3,4-dihydroxyphenylthio)phenyl)acetic acid], the Ki in assay [1] was determined as 0.2 nM.
Same read-out and setting: then `COC(=O)CCc1ccc(Sc2c(C#N)cc(O)c(O)c2C#N)cc1` [Example 144, Methyl 3-(4-(2,6-dicyano-3,4-dihydroxyphenylthio)phenyl)propanoate], with 0.7 nM.
As for `CCN(CC)C(=O)c1cccc(-c2c(C#N)cc(O)c(O)c2C#N)c1` [Example 100, 2′,6′-Dicyano-N,N-diethyl-3′,4′-dihydroxybiphenyl-3-carboxamide], the Ki in assay [2] was determined as 6.5 nM.
Turning to `N#Cc1cc(O)c(O)c(C#N)c1Cc1ccc(C(F)(F)F)cc1` [Example 154, 4,5-Dihydroxy-2-(4-(trifluoromethyl)benzyl)isophthalonitrile], the Ki in assay [1] amounted to 1.3 nM.
Consider `N#Cc1cc(O)c(O)c(C#N)c1-c1cccs1` [Example 5, 4,5-Dihydroxy-2-(thiophen-2-yl)isophthalonitrile], for which the Ki in assay [2] was 0.84 nM.
Same read-out and setting: then `N#Cc1cc(O)c(O)c(C#N)c1/C=C/C(=O)O` [Example 76, (E)-3-(2,6-Dicyano-3,4-dihydroxyphenyl)acrylic acid], with 3.3 nM.
In assay [3], `N#Cc1cc(O)c(O)c(C#N)c1Br` [Example 1, 2-Bromo-4,5-dihydroxyisophthalonitrile] had a Relative levodopa concentration of 1.65.
Consider `N#Cc1cc(O)c(O)c(C#N)c1Cc1ccc(F)cc1` [Example 55, 2-(4-Fluorobenzyl)-4,5-dihydroxyisophthalonitrile], for which, in assay [3], the Relative levodopa concentration is on record as 1.31.
`Cc1ccc(/C=C/c2c(C#N)cc(O)c(O)c2C#N)cc1` [Example 121, (E)-4,5-Dihydroxy-2-(4-methylstyryl)isophthalonitrile]: the Ki in assay [2] was 18 nM.
In the case of `CC(=O)c1ccc(Oc2c(C#N)cc(O)c(O)c2C#N)cc1` [Example 177, 2-(4-Acetylphenoxy)-4,5-dihydroxyisophthalonitrile], the Ki in assay [1] is 0.8 nM.
Consider `CC(C)=Cc1c(C#N)cc(O)c(O)c1C#N` [Example 87, 4,5-Dihydroxy-2-(2-methylprop-1-enyl)isophthalonitrile], for which the Relative levodopa concentration in assay [3] amounted to 1.51.
Regarding `N#Cc1cc(O)c(O)c(C#N)c1Cc1ccccc1` [Example 45, 2-Benzyl-4,5-dihydroxyisophthalonitrile], in assay [2], the Ki worked out at 8.2 nM.
Same read-out and setting: then `N#Cc1cc(O)c(O)c(C#N)c1C1=CCOCC1` [Example 74, 2-(3,6-Dihydro-2H-pyran-4-yl)-4,5-dihydroxyisophthalonitrile], with 2 nM.
Compound `C=CCc1c(C#N)cc(O)c(O)c1C#N` [Example 92, 2-Allyl-4,5-dihydroxyisophthalonitrile] showed a Relative levodopa concentration in assay [3] of 1.42.
As to `COc1ccc(Sc2c(C#N)cc(O)c(O)c2C#N)cc1` [Example 167, 4,5-Dihydroxy-2-(4-methoxyphenylthio)isophthalonitrile], the Ki in assay [1] was 0.3 nM.
As for `N#Cc1cc(O)c(O)c(C#N)c1-c1ccc2cc(O)ccc2c1` [Example 122, 4,5-Dihydroxy-2-(6-hydroxynaphthalen-2-yl)isophthalonitrile], the Ki in assay [2] is 1.5 nM.
`Cc1ccc(-c2c(C#N)cc(O)c(O)c2C#N)cc1` [Example 152, 3,4-Dihydroxy-4′-methylbiphenyl-2,6-dicarbonitrile]: the Ki in assay [1] amounted to 1.6 nM.
Turning to `N#Cc1cc(O)c(O)c(C#N)c1-c1cccc(C(=O)O)c1` [Example 26, 2′,6′-Dicyano-3′,4′-dihydroxybiphenyl-3-carboxylic acid], the inhibitory constant (Ki) in assay [2] was found to be 0.12 nM.
Turning to `COC(=O)c1ccc(Sc2c(C#N)cc(O)c(O)c2C#N)cc1` [Example 161, Methyl 4-(2,6-dicyano-3,4-dihydroxyphenylthio)benzoate], the Ki in assay [1] was 0.3 nM.
Take `N#Cc1cc(O)c(O)c(C#N)c1N1CCOCC1` [Example 191, 4,5-Dihydroxy-2-morpholinoisophthalonitrile]: the Ki in assay [2] turned out to be 2.9 nM.
Regarding `N#Cc1cc(O)c(O)c(C#N)c1Sc1ccc2ccccc2c1` [Example 174, 4,5-Dihydroxy-2-(naphthalen-2-ylthio)isophthalonitrile], the Ki in assay [1] came out at 0.5 nM.
Same read-out and setting: then `Cc1ccc([S+]([O-])c2c(C#N)cc(O)c(O)c2C#N)cc1` (stereo not shown) [Example 156, 4,5-Dihydroxy-2-(p-tolylsulfinyl)isophthalonitrile], with 0.26 nM; and `N#Cc1cc(O)c(O)c(C#N)c1Sc1ccc(Cl)cc1` [Example 159, 2-(4-Chlorophenylthio)-4,5-dihydroxyisophthalonitrile], with 0.94 nM; and `Cc1ccccc1Sc1c(C#N)cc(O)c(O)c1C#N` [Example 160, 4,5-Dihydroxy-2-(o-tolylthio)isophthalonitrile], with 0.7 nM.
On to `N#Cc1cc(O)c(O)c(C#N)c1-c1ccco1` [Example 6, 2-(Furan-2-yl)-4,5-dihydroxyisophthalonitrile], for which, in assay [3], the Relative levodopa concentration is given as 1.64.
For the compound `Cc1ccc(Oc2c(C#N)cc(O)c(O)c2C#N)c(C)c1` [Example 180, 2-(2,4-Dimethylphenoxy)-4,5-dihydroxyisophthalonitrile], in assay [1], the Ki turned out to be 0.5 nM.
In the case of `N#Cc1cc(O)c(O)c(C#N)c1-c1ccc(Cl)c(Cl)c1` [Example 38, 3′,4′-Dichloro-3,4-dihydroxybiphenyl-2,6-dicarbonitrile], the Ki in assay [2] was found to be 9.5 nM.
As to `N#Cc1cc(O)c(O)c(C#N)c1Sc1cccc(C(=O)O)c1` [Example 172, 3-(2,6-Dicyano-3,4-dihydroxyphenylthio)benzoic acid], in assay [1], the Ki amounted to 0.2 nM.
Consider `N#Cc1cc(O)c(O)c(C#N)c1CCCO` [Example 187, 4,5-Dihydroxy-2-(3-hydroxypropyl)isophthalonitrile], for which the Ki in assay [2] is 3.2 nM.
`C=Cc1c(C#N)cc(O)c(O)c1C#N` [Example 89, 4,5-Dihydroxy-2-vinylisophthalonitrile]: the Ki in assay [2] is 2 nM.
In the case of `N#Cc1cc(O)c(O)c(C#N)c1Cc1ccc(C(=O)O)cc1` [Example 118, 4-(2,6-Dicyano-3,4-dihydroxybenzyl)benzoic acid], the inhibitory constant (Ki) in assay [1] is 0.33 nM.
Same read-out and setting: then `N#Cc1cc(O)c(O)c(C#N)c1Sc1ccncc1` [Example 171, 4,5-Dihydroxy-2-(pyridin-4-ylthio)isophthalonitrile], with 0.9 nM.

The values above are taken from patent publication US9458128B2, “Catechol O-methyltransferase activity inhibiting compounds” (Orion Corporation, priority 2012, dated 2016).
